Test results: paper PMC8147360, “AGMO Inhibitor Reduces 3T3-L1 Adipogenesis” (Cells, 2021)

Assays:
[1] = molecular target: T1, Alkylglycerol monooxygenase (AGMO) (Rattus norvegicus, UniProt A0JPQ8); assay: HPLC fluorescence activity assay with 1-O-pyrenedecyl-sn-glycerol in rat liver microsomes, coupled to FALDH (FALDH not inhibited); type: biochemical
T1 construct: native enzyme in rat liver microsomes
T1 sequence (A0JPQ8 1-447): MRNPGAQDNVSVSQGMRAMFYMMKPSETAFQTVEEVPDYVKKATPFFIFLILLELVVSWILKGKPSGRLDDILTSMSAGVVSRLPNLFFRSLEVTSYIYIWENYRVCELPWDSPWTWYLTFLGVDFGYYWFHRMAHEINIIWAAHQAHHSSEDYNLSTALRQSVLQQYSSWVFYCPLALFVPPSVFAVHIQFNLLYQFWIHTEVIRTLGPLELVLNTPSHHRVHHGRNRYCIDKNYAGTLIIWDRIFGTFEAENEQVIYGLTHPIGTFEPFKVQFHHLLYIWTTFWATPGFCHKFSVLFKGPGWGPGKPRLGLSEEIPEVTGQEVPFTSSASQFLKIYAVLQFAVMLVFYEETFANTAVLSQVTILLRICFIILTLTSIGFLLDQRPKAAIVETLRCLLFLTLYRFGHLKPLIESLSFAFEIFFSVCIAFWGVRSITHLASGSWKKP

[2] = molecular target: T2, phenylalanine hydroxylase (PAH) (Rattus norvegicus, UniProt P04176); assay: HPLC tyrosine fluorescence assay with purified recombinant PAH; type: biochemical
T2 construct: rat PAH maltose fusion protein, expressed in E. coli
T2 sequence (P04176 2-453): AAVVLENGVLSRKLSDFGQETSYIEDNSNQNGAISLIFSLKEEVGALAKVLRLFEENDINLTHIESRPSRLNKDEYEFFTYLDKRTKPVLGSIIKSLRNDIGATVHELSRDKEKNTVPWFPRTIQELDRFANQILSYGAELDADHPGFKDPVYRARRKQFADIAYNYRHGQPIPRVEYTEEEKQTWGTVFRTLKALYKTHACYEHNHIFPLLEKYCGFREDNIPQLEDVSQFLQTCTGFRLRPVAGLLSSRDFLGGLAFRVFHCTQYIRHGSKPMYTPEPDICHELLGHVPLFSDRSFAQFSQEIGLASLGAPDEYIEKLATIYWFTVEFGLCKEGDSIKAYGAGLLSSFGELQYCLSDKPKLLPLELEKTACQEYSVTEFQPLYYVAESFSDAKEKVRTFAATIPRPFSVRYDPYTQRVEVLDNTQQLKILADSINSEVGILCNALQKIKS

IC50 [1]: ~50 µM
IC50 [2]: 360 to 430 µM
SMILES: CC1Nc2nc(N(C)C)[nH]c(=O)c2NC1C (centres unmarked) [compound 6, 2-(dimethylamino)-6,7-dimethyl-5,6,7,8-tetrahydro-4(3H)-pteridinone]
